Measured values: patent US12077495B2 (priority 2018, dated 2024)

Columns and labels:
[1] = biological target: T1, GABAB receptor (Rattus norvegicus, UniProt Q9Z0U4); test: 3H-GABA binding assay for GABAB, rat cortex membranes; settings: up to concentrations of 1 mM
T1 construct: using crude synaptic membranes prepared from rat cortex; from tissue; host or cells: rat cortex, crude synaptic membranes
Description: Following incubation by rapid filtration through GF/C unifilters (PerkinElmer, Boston, MA, USA), using a 96-well Packard cell-harvester (PerkinElmer) and three fast washes with ice-cold binding buffer, microscint scintillation fluid (PerkinElmer) was added to the dried filters, and the amount of filter-bound radioactivity was quantified in a Packard TopCount microplate scintillation counter (PerkinElmer). […] The binding reactions were terminated by rapid filtration through GF/C filters (Whatman), soaked in 0.1% polyethylene imine, using a Brandell 48-well harvester and rapid washing with ice-cold binding buffer. […] Data are presented as % specific binding (of control), and IC50 or Ki values calculated by means of non-linear regression curve-fitting and the Cheng-Prusoff equation, respectively.

[2] = biological target: T2, CAMK2A pThr286 autophosphorylation (Mus musculus, UniProt P11798); test: pThr286 autophosphorylation in dissected mouse cortex after photothrombosis (Western blot); assay type: in vivo, mice; settings: 175 mg/kg i.p.; cortex tissue; pThr286 normalized to total CAMK2A
T2 construct: cortical tissue isolated from mice subjected to photothrombotic injury; from tissue; host or cells: mouse cortex (infarct core), C57BL/6J, after in vivo dosing
T2 sequence (P11798 whole entry): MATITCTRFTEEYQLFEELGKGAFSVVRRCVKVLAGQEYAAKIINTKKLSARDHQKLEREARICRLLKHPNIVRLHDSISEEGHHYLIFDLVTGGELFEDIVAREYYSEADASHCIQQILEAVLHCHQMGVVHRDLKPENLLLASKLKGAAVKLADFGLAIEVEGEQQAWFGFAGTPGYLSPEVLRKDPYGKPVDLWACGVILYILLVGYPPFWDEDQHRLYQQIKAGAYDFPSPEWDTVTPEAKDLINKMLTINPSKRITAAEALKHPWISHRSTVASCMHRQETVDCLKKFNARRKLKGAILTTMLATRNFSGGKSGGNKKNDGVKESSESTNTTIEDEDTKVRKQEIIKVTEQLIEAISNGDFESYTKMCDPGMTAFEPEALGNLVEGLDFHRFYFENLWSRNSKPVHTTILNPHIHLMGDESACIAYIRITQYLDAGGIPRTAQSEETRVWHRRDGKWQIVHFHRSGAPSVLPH
Description: Along with the standard protocol for photothrombotic focal ischemia, mice were treated with either saline or 175 mg/kg A (i.p.) 30 min after the injury. Three hours after the injury, mice were sacrificed, brains were dissected out and immediately submerged in ice-cold PBS supplemented with 1% phosphatase and protease inhibitors (Phosphatase inhibitor cocktail 3 #P0044 (Sigma), Phosphatase inhibitor cocktail 2 #P5726 (Sigma) and complete EDTA protease inhibitors (Roche) for 5 min. Cortex tissue from the infarct core region (i.e. 1.5 mm right of bregma including the primary motor cortex with a diameter of 2 mm) was dissected and snap-frozen on dry ice. Tissue homogenization was performed using 1×RIPA buffer supplemented with phosphatase and protease inhibitors and a Bullet Blender. Autophosphorylation was assessed by Western blot analysis, comparing the total level of CAMK2A (quantified using anti-CAMK2A, #NB100-1983, Novus Biologicals) to the level of phosphorylated CAMK2A (pThr286: #12716S, Cell Signalling Technology; goat anti-rabbit HRP: #PI-1000 X0126, Vector). […]
To this end, sham mice or mice were treated with either saline or 175 mg/kg A (i.p.) 3 hrs after the injury. […] Autophosphorylation was assessed by Western blot analysis and levels of pThr286 CAMK2A normalized to total CAMK2A to detect changes in autophosphorylation.

[3] = biological target: T1, GABAB receptor; settings: cited from earlier work
[4] = tested on: permanent middle cerebral artery occlusion in C57BL/6J mice; test: pMCAO model of focal ischemia, infarct volume; assay type: in vivo; settings: 175 mg/kg 30 min after pMCAO; day 3; saline 16.6
Description: The pMCAO study was performed using age-matched, young adult (7-8 weeks), male C57BL/6J mice (Taconic). Mice were housed in separate cages under diurnal lighting and given free access to food (1314 Altromin) and water. Mice were acclimatized for seven days prior to surgery in accordance with guidelines approved by the Danish Animal Ethical Committee.
Focal cerebral ischemia was made by permanent occlusion of the distal part of the left middle cerebral artery (MCA). Mice were anesthetized by injection of a mixture of Hypnorm (fentanyl citrate 0.315 mg/ml and fluanisone 10 mg/ml; Jansen-Cilag), Stesolid (5 mg/ml Diazepamum; Dumex) and distilled water (1:1:2; 0.20 ml/10 g body weight, s.c.). The mouse was placed on a 37±0.5° C. warm heating pad and a skin incision was made from eye to ear. […]
For quantification of the infarcted area, animals were perfused with saline and then with 4% paraformaldehyde (PFA) and the brain dissected out and submerged in 4% PFA for post-fixing overnight. […] Sections were mounted, stained for cresyl violet and the infarct volumes determined by measuring every 6th section through the entire infarct as described in Lie et al (2017). […] The glass slides were stored at −80° C. until further processing, and then Cresyl-Violet stained and quantified as described for the photothrombotic photochemical method. […]

T1 sequence (Q9Z0U4 17-960 limits assumed): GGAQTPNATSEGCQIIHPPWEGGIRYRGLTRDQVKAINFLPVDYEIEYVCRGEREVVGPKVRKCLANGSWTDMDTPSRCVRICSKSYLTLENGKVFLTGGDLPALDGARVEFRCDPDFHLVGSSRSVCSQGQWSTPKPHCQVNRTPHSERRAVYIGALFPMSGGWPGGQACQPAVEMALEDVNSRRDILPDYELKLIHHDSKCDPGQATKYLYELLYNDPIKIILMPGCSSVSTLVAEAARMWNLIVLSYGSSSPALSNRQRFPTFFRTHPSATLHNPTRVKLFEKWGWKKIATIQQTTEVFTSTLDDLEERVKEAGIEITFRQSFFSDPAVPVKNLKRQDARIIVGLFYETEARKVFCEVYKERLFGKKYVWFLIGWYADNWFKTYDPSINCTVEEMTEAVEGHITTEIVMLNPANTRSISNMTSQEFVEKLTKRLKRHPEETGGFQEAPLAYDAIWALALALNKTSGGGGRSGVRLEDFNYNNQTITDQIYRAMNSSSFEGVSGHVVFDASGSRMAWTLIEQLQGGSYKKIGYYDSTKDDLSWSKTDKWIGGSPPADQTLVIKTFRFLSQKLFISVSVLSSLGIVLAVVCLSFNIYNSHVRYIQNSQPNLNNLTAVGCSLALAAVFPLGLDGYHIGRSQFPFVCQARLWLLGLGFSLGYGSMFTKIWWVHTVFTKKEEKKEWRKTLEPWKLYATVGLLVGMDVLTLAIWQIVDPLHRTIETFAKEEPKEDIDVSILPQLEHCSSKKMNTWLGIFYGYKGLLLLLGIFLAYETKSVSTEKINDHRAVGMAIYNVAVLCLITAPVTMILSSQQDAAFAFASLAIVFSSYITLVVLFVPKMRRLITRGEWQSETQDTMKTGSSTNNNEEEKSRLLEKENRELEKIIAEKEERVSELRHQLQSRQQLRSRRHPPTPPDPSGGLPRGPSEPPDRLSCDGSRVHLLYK
T1 sequence (O88871 41-940 partner): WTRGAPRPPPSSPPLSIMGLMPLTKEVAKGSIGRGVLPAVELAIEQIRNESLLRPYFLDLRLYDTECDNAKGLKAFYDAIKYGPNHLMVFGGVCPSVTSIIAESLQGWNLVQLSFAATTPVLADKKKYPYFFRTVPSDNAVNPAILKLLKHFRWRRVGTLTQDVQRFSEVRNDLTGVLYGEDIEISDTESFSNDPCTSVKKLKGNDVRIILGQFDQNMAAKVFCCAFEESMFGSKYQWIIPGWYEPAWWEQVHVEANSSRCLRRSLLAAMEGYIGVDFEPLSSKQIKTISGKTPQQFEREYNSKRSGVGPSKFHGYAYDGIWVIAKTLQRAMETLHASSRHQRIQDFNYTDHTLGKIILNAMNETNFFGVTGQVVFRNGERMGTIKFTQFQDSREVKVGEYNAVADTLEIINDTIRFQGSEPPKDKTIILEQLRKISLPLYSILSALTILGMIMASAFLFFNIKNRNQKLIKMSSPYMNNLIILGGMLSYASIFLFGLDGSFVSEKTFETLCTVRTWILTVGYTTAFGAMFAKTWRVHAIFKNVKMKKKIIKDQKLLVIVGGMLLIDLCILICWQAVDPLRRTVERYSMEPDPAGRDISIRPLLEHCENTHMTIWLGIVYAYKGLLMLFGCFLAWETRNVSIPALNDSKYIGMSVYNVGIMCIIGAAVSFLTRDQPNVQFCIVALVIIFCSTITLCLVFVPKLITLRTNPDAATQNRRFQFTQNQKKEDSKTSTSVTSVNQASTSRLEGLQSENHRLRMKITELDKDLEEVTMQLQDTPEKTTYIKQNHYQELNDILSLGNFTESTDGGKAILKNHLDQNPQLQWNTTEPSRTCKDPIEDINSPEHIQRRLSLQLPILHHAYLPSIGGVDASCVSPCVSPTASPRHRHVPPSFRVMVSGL

O=C(O)C1=CC(O)CC1 (stereo not shown) [Compound A, 3-hydroxycyclopent-1-enecarboxylic acid]
inhibition of 3H-GABA binding to GABAB receptor [1]: no ability to compete
decrease in pThr286 autophosphorylation [2]: 73%
affinity for the GABAB binding site [3]: does not display any affinity
infarct volume [4]: 12.3 mm^3
